Source: US20150336943A1, “NOVEL BENZODIOXANE-PIPERIDINE DERIVATIVES AND THEIR THERAPEUTIC APPLICATIONS FOR TREATING NEUROPSYCHIATRIC DISORDERS” (PIERRE FABRE MEDICAMENT, priority 2013, published 2015)

How the values were obtained:
dopaminergic receptor D2 = molecular target: T1, dopaminergic receptor D2 (Homo sapiens, UniProt P14416); assay: Inhibition constants (Ki) for dopaminergic receptor D2 in recombinant cells; type: binding; settings: read-out: pKi D2 (converted)
T1 construct: expressed in transfected cells; host or cells: recombinant human cells (so in the source)
T1 sequence (P14416 whole entry): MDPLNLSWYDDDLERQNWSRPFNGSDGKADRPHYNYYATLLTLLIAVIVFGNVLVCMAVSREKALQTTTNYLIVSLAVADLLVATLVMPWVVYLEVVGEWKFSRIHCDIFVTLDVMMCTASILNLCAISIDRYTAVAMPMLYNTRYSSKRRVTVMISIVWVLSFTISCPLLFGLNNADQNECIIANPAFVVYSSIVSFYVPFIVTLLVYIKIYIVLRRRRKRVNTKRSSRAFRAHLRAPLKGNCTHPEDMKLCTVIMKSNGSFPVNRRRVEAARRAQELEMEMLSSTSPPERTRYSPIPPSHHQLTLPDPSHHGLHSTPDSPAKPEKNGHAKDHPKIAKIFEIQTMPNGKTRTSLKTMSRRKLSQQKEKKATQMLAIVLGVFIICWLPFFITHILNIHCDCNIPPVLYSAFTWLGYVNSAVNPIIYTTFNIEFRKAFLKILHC
Protocol: (§1) Compounds of formula 1 have been evaluated in vitro as ligands for dopaminergic and noradrenergic receptors and modulators of the activity of these receptors according to the invention in recombinant human cells expressing the receptors. The inhibition constants (Ki) were measured for dopaminergic receptors D2 and D3, and for adrenergic receptors alpha2A, alpha2B and alpha2C, according to the described methods (Newman-Tancredi A, Assie M B, Martel J C, Cosi C, Slot L B, Palmier C, Rauly-Lestienne I, Colpaert F, Vacher B, Cussac D. F15063, a potential antipsychotic with D2/D3 antagonist, 5-HT 1A agonist and D4 partial agonist properties. I. In vitro receptor affinity and efficacy profile. Br J Pharmacol., 2007, 151:237-252). The intrinsic activity of the products for the D2 receptor was measured (Bruins Slot L A, De Vries L, Newman-Tancredi A, Cussac D. Differential profile of antipsychotics at serotonin 5-HT1A and dopamine D2S receptors coupled to extracellular signal-regulated kinase. Eur J Pharmacol, 2006, 534; 63-70. The results obtained for some of these compounds are presented in the following table.

[1] = molecular target: T2, adrenergic receptor alpha2A (Homo sapiens, UniProt P08913); assay: Inhibition constants (Ki) for adrenergic receptor alpha2A in recombinant cells; type: binding; settings: read-out: pKi α2A (converted)
T2 construct: expressed in transfected cells; host or cells: recombinant human cells (so in the source)
T2 sequence (P08913 1-465): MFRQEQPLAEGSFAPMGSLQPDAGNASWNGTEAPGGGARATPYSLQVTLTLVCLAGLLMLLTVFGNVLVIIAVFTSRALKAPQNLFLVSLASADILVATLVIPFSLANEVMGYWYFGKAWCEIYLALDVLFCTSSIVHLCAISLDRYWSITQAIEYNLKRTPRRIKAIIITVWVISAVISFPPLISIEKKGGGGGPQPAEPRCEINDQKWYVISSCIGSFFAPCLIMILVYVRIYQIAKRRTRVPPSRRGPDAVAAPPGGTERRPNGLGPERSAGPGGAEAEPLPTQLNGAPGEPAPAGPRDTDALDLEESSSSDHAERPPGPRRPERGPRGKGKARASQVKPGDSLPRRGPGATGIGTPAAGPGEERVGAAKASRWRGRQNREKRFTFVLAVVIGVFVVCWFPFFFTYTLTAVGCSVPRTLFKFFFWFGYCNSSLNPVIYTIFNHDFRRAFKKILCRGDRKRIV
Protocol: as §1

D2 receptor = molecular target: T3, D2 receptor (Homo sapiens, UniProt P14416); assay: Intrinsic (agonist) activity at the D2 receptor; type: cell-based
T3 construct: expressed in transfected cells; host or cells: recombinant human cells (so in the source)
T3 sequence (P14416 1-414 isoform P14416-2): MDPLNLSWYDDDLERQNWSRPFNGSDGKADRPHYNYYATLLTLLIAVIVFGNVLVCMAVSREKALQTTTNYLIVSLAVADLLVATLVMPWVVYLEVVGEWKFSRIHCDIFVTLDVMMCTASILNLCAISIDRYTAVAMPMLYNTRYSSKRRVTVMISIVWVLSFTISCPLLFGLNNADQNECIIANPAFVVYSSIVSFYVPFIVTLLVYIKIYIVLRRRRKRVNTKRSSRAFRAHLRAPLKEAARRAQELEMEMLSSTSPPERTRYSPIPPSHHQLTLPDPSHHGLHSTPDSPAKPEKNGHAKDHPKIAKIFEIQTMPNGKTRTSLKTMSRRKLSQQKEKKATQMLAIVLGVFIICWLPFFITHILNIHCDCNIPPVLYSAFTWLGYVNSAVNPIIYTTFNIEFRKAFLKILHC
Protocol: The prior art mentions, for benzodioxane-piperidine derivatives bearing an amide, a urea or an imidazolidinone, as non-selective alpha2-antagonists (WO 97/28157, WO 98/02435); some of these products also have a weak affinity for the D2 dopaminergic receptor (T. Imbert, J. Med. Chem, 2000, 43: 3653-3664). […] Activity as a D2 and D3 receptor agonist was determined according to the described methods (Bruins Slot L A, De Vries L, Newman-Tancredi A, Cussac D. Differential profile of antipsychotics at serotonin 5-HT1A and dopamine D2S receptors coupled to extracellular signal-regulated kinase. Eur J Pharmacol, 2006, 534; 63-70; Bruins Slot L A, Palmier C, Tardif S, Cussac D. Action of novel antipsychotics at human dopamine D3 receptors coupled to G protein and ERK1/2 activation. Neuropharmacology, 2007, 53: 232-241) for the following compounds, such as described in WO 97/28157 and WO 98/02435; • 1-benzyl-3-(2-(1-((2,3-dihydrobenzo[b][1,4]dioxin-2-yl)methyl)piperidin-4-yl)ethyl)imidazolidin-2-one • 1-(2-(1-((2,3-dihydrobenzo[b][1,4]dioxin-2-yl)methyl)piperidin-4-yl)ethyl)-3-methylimidazolidin-2-one • 1-(2,6-dichlorophenyl)-3-(2-(1-((2,3-dihydrobenzo[b][1,4]dioxin-2-yl)methyl)piperidin-4-yl)ethyl)imidazolidin-2-one • 1-(2-(1-((2,3-dihydrobenzo[b][1,4]dioxin-2-yl)methyl)piperidin-4-yl)ethyl)-3-(pyridin-4-yl)imidazolidin-2-one • 3-(2-(1-((2,3-dihydrobenzo[b][1,4]dioxin-2-yl)methyl)piperidin-4-yl)ethyl)-1-phenylimidazolidine-2,4-dione • (S)—N-(2-(1-((2,3-dihydrobenzo[b][1,4]dioxin-2-yl)methyl)piperidin-4-yl)ethyl)-[1,1′-biphenyl]-4-carboxamide • (S)—N-(2-(1-((2,3-dihydrobenzo[b][1,4]dioxin-2-yl)methyl)piperidin-4-yl)ethyl)-4-(1H-pyrrol-1-yl)benzamide • (S)—N-(2-(1-((2,3-dihydrobenzo[b][1,4]dioxin-2-yl)methyl)piperidin-4-yl)ethyl)-4-(pyridin-4-yl)benzamide • (S)—N-(2-(1-((2,3-dihydrobenzo[b][1,4]dioxin-2-yl)methyl)piperidin-4-yl)ethyl)-4-(pyridin-3-yl)benzamide • (S)—N-(2-(1-((2,3-dihydrobenzo[b][1,4]dioxin-2-yl)methyl)piperidin-4-yl)ethyl)-9-oxo-9H-fluorene-1-carboxamide.
as §1

[2] = test system: MK-801-induced hyperactivity; assay: MK-801-induced hyperactivity test in mice; type: in vivo; settings: Mus musculus
[3] = molecular target: T4, adrenergic receptor alpha2C (Homo sapiens, UniProt P18825); assay: Inhibition constants (Ki) for adrenergic receptor alpha2C in recombinant cells; type: binding; settings: read-out: pKi α2C (converted)
T4 construct: expressed in transfected cells; host or cells: recombinant human cells (so in the source)
T4 sequence (P18825 1-462): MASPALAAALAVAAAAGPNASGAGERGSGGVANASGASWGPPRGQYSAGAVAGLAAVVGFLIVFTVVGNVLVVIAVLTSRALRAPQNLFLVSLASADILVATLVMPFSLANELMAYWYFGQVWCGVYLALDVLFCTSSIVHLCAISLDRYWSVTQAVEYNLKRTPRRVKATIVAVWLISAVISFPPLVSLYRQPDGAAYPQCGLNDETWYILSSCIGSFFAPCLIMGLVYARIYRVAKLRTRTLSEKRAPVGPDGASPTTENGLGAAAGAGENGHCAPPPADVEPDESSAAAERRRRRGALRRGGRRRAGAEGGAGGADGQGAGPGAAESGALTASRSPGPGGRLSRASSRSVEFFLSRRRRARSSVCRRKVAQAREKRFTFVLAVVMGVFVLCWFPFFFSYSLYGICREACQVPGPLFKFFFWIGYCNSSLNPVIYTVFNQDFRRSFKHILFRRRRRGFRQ
Protocol: as §1

dopaminergic receptor D3 = molecular target: T5, dopaminergic receptor D3 (Homo sapiens, UniProt P35462); assay: Inhibition constants (Ki) for dopaminergic receptor D3 in recombinant cells; type: binding; settings: read-out: pKi D3 (converted)
T5 construct: expressed in transfected cells; host or cells: recombinant human cells (so in the source)
T5 sequence (P35462 whole entry): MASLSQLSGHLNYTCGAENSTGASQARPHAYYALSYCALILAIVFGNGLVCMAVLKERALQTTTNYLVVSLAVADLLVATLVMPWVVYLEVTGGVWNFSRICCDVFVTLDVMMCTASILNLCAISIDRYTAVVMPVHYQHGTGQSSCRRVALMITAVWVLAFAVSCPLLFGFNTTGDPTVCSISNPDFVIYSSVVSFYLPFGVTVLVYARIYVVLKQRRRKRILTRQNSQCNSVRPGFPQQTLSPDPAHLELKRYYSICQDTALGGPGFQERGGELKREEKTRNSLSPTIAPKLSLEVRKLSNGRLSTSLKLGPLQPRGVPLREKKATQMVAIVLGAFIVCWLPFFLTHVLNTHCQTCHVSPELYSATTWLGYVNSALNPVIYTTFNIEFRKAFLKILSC
Protocol: as §1

[4] = molecular target: T6, adrenergic receptor alpha2B (Homo sapiens, UniProt P18089); assay: Inhibition constants (Ki) for adrenergic receptor alpha2B in recombinant cells; type: binding; settings: read-out: pKi α2B (converted)
T6 construct: expressed in transfected cells; host or cells: recombinant human cells (so in the source)
T6 sequence (P18089 1-450): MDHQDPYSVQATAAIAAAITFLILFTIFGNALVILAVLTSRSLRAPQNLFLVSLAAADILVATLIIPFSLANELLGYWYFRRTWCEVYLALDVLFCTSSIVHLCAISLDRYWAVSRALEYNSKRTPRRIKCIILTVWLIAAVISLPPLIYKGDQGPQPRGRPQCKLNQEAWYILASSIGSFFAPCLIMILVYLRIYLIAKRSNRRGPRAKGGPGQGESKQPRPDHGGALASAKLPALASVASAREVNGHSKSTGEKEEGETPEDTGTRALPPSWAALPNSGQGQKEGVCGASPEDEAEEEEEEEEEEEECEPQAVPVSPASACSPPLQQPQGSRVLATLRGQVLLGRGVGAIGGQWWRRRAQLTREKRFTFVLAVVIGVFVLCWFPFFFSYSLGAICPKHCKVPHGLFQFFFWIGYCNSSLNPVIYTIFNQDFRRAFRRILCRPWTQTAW
Protocol: as §1

Row | Ki (dopaminergic receptor D2) [nM] | Ki [1] [nM] | I.A.: Intrinsic activity on receptor D2 in vitro (D2 receptor) | Ki [3] [nM] | Ki (dopaminergic receptor D3) [nM] | Ki [4] [nM] | Compound | ED50 [2] [mg/kg]
1 | 14.5 | 8.71 | 36 percentage of that of dopamine | 0.851 | 6.46 | 1.95 | O=C1OCCN1CCC1CCN(C[C@H]2COc3ccc(F)cc3O2)CC1 [Example 7, (S)-3-(2-(1-((7-fluoro-2,3-dihydrobenzo[b][1,4]dioxin-2-yl)methyl)piperidin-4-yl)ethyl)oxazolidin-2-one] | 0.15
2 | 4.57 | 4.57 | 6 percentage of that of dopamine | 0.537 | 1.55 | 0.813 | O=C1OCCN1CCC1CCN(C[C@H]2COc3c(F)cc(F)cc3O2)CC1 [Example 10, (S)-3-(2-(1-((5,7-difluoro-2,3-dihydrobenzo[b][1,4]dioxin-2-yl)methyl)piperidin-4-yl)ethyl)oxazolidin-2-one] | 0.13
3 | 0.955 | 7.08 | 16 percentage of that of dopamine | 0.955 | 0.603 | 2.57 | O=C1OCCN1CCC1CCN(C[C@H]2COc3c(Cl)cc(F)cc3O2)CC1 [Example 13, (S)-3-(2-(1-((5-chloro-7-fluoro-2,3-dihydrobenzo[b][1,4]dioxin-2-yl)methyl)piperidin-4-yl)ethyl)oxazolidin-2-one] | 0.04
4 | 0.891 | 34.7 | 8 percentage of that of dopamine | 2.04 | 0.447 | 9.55 | O=C1OC[C@H](Cc2ccccc2)N1CCC1CCN(C[C@H]2COc3ccc(Br)cc3O2)CC1 [Example 26, (S)-4-benzyl-3-(2-(1-(((S)-7-bromo-2,3-dihydrobenzo[b][1,4]dioxin-2-yl)methyl)piperidin-4-yl)ethyl)oxazolidin-2-one] | 0.9
5 | 1.26 | 15.1 | – | 6.61 | 0.355 | 18.2 | O=C1OC[C@H](Cc2ccccc2)N1CCC1CCN(C[C@H]2COc3ccc(OC(F)(F)F)cc3O2)CC1 [Example 32, (S)-4-benzyl-3-(2-(1-(((S)-7-(trifluoromethoxy)-2,3-dihydrobenzo[b][1,4]dioxin-2-yl)methyl)piperidin-4-yl)ethyl)oxazolidin-2-one] | 2.4
6 | 2.14 | 6.03 | – | 0.562 | 1.29 | 1.17 | O=C1OC[C@H](Cc2ccccc2)N1CCC1CCN(C[C@H]2COc3cc(O)ccc3O2)CC1 [Example 36] | 3.4
7 | 1.58 | 30.9 | 0 percentage of that of dopamine | 1.62 | 0.347 | 10.5 | O=C1OC[C@@H](CO)N1CCC1CCN(C[C@H]2COc3c(F)cc(Cl)cc3O2)CC1 [Example 62, (R)-3-(2-(1-(((S)-7-chloro-5-fluoro-2,3-dihydrobenzo[b][1,4]dioxin-2-yl)methyl)piperidin-4-yl)ethyl)-4-(hydroxymethyl)oxazolidin-2-one] | 2.1
8 | 3.09 | 53.7 | 5 percentage of that of dopamine | 2.69 | 1.32 | 8.32 | O=C1OC[C@@H](CO)N1CCC1CCN(C[C@H]2COc3c(Cl)cc(F)cc3O2)CC1 [Example 63, (R)-3-(2-(1-(((S)-5-chloro-7-fluoro-2,3-dihydrobenzo[b][1,4]dioxin-2-yl)methyl)piperidin-4-yl)ethyl)-4-(hydroxymethyl)oxazolidin-2-one] | 0.2
9 | 0.24 | 200 | 13 percentage of that of dopamine | 8.71 | 0.417 | 186 | O=C1OC[C@@H](COc2ccccc2)N1CCC1CCN(C[C@H]2COc3ccc(Br)cc3O2)CC1 [Example 69, (R)-3-(2-(1-(((S)-7-bromo-2,3-dihydrobenzo[b][1,4]dioxin-2-yl)methyl)piperidin-4-yl)ethyl)-4-(phenoxymethyl)oxazolidin-2-one] | 0.6
10 | 19.1 | 57.5 | – | 6.76 | 1.23 | 81.3 | N#Cc1ccc2c(c1)O[C@@H](CN1CCC(CCN3CCOCC3=O)CC1)CO2 [Example 85, (S)-3-((4-(2-(3-oxomorpholino)ethyl)piperidin-1-yl)methyl)-2,3-dihydrobenzo[b][1,4]dioxine-6-carbonitrile] | 0.5
11 | 15.1 | 4.9 | 24 percentage of that of dopamine | 0.437 | 3.31 | 1.55 | O=C1COCCN1CCC1CCN(C[C@H]2COc3c(F)cc(F)cc3O2)CC1 [Example 91, (S)-4-(2-(1-((5,7-difluoro-2,3-dihydrobenzo[b][1,4]dioxin-2-yl)methyl)piperidin-4-yl)ethyl)morpholin-3-one] | 0.7
